Laboratory results from publication PMC12396409, “Screening and hit evaluation of a microbial metabolite library against the pathogenic Plasmodium falciparum and Toxoplasma gondii parasites” (International Journal for Parasitology: Drugs and Drug …, 2025).
Like-named read-outs stand apart in the source and are kept apart here. *1 amine or outer side, *2 acyl side, *3 side chain or, on linkers, in order; H or OH if unused. Where a SMILES comes first, the peptide text is derived from it. Bridges are numbered along the chain shown (N, C = ends). Roman numbers before positions name the chains, in order. [ ]: non-standard residue; d: D form. Actinocin(9to1) = Cc1c2oc3c(C)ccc(C(=O)[*:1])c3nc-2c(C(=O)[*:2])c(N)c1=O; NMeV = CN[C@H](C(=O)O)C(C)C; Sar = CNCC(=O)O

Key:
[1] = test system: P. falciparum 3D7 parasites; assay: P. falciparum growth inhibition assay, 1-cycle (72 h treatment), SYBR DNA staining (library screen at 2 μg/mL and dose-response); type: cell-based, Plasmodium falciparum; details: for activity at 2 µg/mL: Plasmodium falciparum, 3D7
[2] = test system: P. falciparum 3D7 parasites; assay: P. falciparum growth inhibition assay, 2-cycle (120 h treatment), delayed-death screen and dose-response; type: cell-based, Plasmodium falciparum; details: for activity at 2 µg/mL: Plasmodium falciparum, 3D7
[3] = test system: T. gondii RH strain (RH-Tub-eYFP) tachyzoites; assay: microbe, parasite or virus in culture; type: cell-based, Toxoplasma gondii
[4] = P. falciparum, 72 h, screen at 2 μg/mL, replicate 1, read-out: Pf_72h_%Growth_Rep1
[5] = P. falciparum, 72 h, screen at 2 μg/mL, replicate 2, read-out: Pf_72h_%Growth_Rep2
[6] = P. falciparum, 120 h, screen at 2 μg/mL, replicate 1, read-out: Pf_120h_%Growth_Rep1
[7] = P. falciparum, 120 h, screen at 2 μg/mL, replicate 2, read-out: Pf_120h_%Growth_Rep2
[8] = Toxoplasma gondii, 72 h, T. gondii, 72 h, screen at 2 μg/mL, replicate 1; read-out: Tg_72h_%Growth_Rep1
[9] = Toxoplasma gondii, 72 h, T. gondii, 72 h, screen at 2 μg/mL, replicate 2; read-out: Tg_72h_%Growth_Rep2
[10] = library screen at 2 μg/mL, 72 h, % growth, replicate 1, read-out: Pf_72h_%Growth_Rep1
[11] = library screen at 2 μg/mL, 72 h, % growth, replicate 2, read-out: Pf_72h_%Growth_Rep2
[12] = library screen at 2 μg/mL, 120 h, % growth, replicate 1, read-out: Pf_120h_%Growth_Rep1
[13] = library screen at 2 μg/mL, 120 h, % growth, replicate 2, read-out: Pf_120h_%Growth_Rep2
[14] = Toxoplasma gondii, 72 h, library screen at 2 μg/mL, 72 h, % growth, replicate 1; read-out: Tg_72h_%Growth_Rep1
[15] = Toxoplasma gondii, 72 h, library screen at 2 μg/mL, 72 h, % growth, replicate 2; read-out: Tg_72h_%Growth_Rep2
[16] = library screen at 2 μg/mL, 72 h, % growth, replicate 1
[17] = library screen at 2 μg/mL, 72 h, % growth, replicate 2
[18] = library screen at 2 μg/mL, 120 h, % growth, replicate 1
[19] = library screen at 2 μg/mL, 120 h, % growth, replicate 2
[20] = P. falciparum, 72 h, screen at 2 μg/mL, replicate 1
[21] = P. falciparum, 72 h, screen at 2 μg/mL, replicate 2
[22] = P. falciparum, 120 h, screen at 2 μg/mL, replicate 1
[23] = P. falciparum, 120 h, screen at 2 μg/mL, replicate 2
[24] = T. gondii, 72 h, screen at 2 μg/mL, replicate 1
[25] = T. gondii, 72 h, screen at 2 μg/mL, replicate 2

## C=C(CC[C@]12O[C@H](C(=O)O)[C@@](O)(C(=O)O)[C@](C(=O)O)(O1)[C@H](OC(=O)/C=C/[C@@H](C)C[C@@H](C)CC)[C@H]2O)[C@@H](OC(C)=O)[C@H](C)Cc1ccccc1 [Zaragozic acid A]
[1]; [4]
  activity at 2 µg/mL: 92.7%
[1]; [5]
  activity at 2 µg/mL: 117%
[2]; [6]
  activity at 2 µg/mL: 104%
[2]; [7]
  activity at 2 µg/mL: 107%
[3]; [8]
  percent parasite growth at 2 µg/mL: 122%
[3]; [9]
  percent parasite growth at 2 µg/mL: 82.3%

## CC[C@H](C)[C@H]1O[C@]2(C=C[C@@H]1C)C[C@@H]1C[C@@H](C/C=C(\C)[C@@H](O[C@H]3C[C@H](OC)[C@@H](O[C@H]4C[C@H](OC)[C@@H](O)[C@H](C)O4)[C@H](C)O3)[C@@H](C)/C=C/C=C3\CO[C@@H]4[C@H](O)C(C)=C[C@@H](C(=O)O1)[C@]34O)O2 [Avermectin B1a]
[1]; [10]
  activity at 2 µg/mL: 3.24%
[1]; [11]
  activity at 2 µg/mL: 3.85%
[2]; [12]
  activity at 2 µg/mL: 3.33%
[2]; [13]
  activity at 2 µg/mL: 5.47%
[3]; [14]
  percent parasite growth at 2 µg/mL: 81.9%
[3]; [15]
  percent parasite growth at 2 µg/mL: 76.2%

## CC(C)C[C@H]1C(=O)O[C@H](C(C)C)C(=O)N(C)[C@@H](CC(C)C)C(=O)O[C@H](C(C)C)C(=O)N(C)[C@@H](CC(C)C)C(=O)O[C@H](C(C)C)C(=O)N(C)[C@@H](CC(C)C)C(=O)O[C@H](C(C)C)C(=O)N1C [Bassianolide]
[1]; [16]
  Pf_72h_%Growth_Rep1: 6.97%
[1]; [17]
  Pf_72h_%Growth_Rep2: 5.23%
[2]; [18]
  Pf_120h_%Growth_Rep1: 10.85%
[2]; [19]
  Pf_120h_%Growth_Rep2: -3.01%
[3]; [16]
  Tg_72h_%Growth_Rep1: 78.43%
[3]; [17]
  Tg_72h_%Growth_Rep2: 93.64%

## CC(/C=C/C(=O)NO[C@@H]1O[C@H](CO)[C@@H](O)[C@H](O)[C@H]1O)=C\[C@@H](C)C(=O)c1ccc(N(C)C)cc1 [Trichostatin C]
[1]; [20]
  Pf_72h_%Growth_Rep1: 75.18%
[1]; [21]
  Pf_72h_%Growth_Rep2: 84.35%
[2]; [22]
  Pf_120h_%Growth_Rep1: 157.32%
[2]; [23]
  Pf_120h_%Growth_Rep2: 88.61%
[3]; [24]
  Tg_72h_%Growth_Rep1: 87.04%
[3]; [25]
  Tg_72h_%Growth_Rep2: 108.99%

## COc1ccc(Cl)c(C)c1C(=O)O[C@@H]1C[C@H](O[C@H]2[C@H](O)C[C@H](O[C@H]3CCC[C@@H]4[C@@H]3C=C[C@H]3CCCC/C=C/[C@@H]5C=C(C(=O)O)[C@H](C)C[C@]56OC(=O)C(=C6O)OC(=O)[C@@]43C)O[C@@H]2C)O[C@H](C)[C@H]1O [Chlorothricin]
[1]; [20]
  Pf_72h_%Growth_Rep1: 106.01%
[1]; [21]
  Pf_72h_%Growth_Rep2: 86.61%
[2]; [22]
  Pf_120h_%Growth_Rep1: 151.59%
[2]; [23]
  Pf_120h_%Growth_Rep2: 96.98%
[3]; [24]
  Tg_72h_%Growth_Rep1: 75.08%
[3]; [25]
  Tg_72h_%Growth_Rep2: 94.25%

## CC(/C=C/[C@@]1(C)[C@H](C)CCC(=O)[C@@H]1C)=C\Cc1c(O)c(Cl)c(C)c(C=O)c1O [Ascochlorin]
[1]; [10]
  activity at 2 µg/mL: 79.8%
[1]; [11]
  activity at 2 µg/mL: 84.8%
[2]; [12]
  activity at 2 µg/mL: 141%
[2]; [13]
  activity at 2 µg/mL: 86.1%
[3]; [14]
  percent parasite growth at 2 µg/mL: 69.4%
[3]; [15]
  percent parasite growth at 2 µg/mL: 87.7%

## CC(=O)N[C@H]1[C@H](O[C@@H]2c3ccc(c(Cl)c3)Oc3cc4cc(c3O[C@@H]3O[C@H](CO)[C@@H](O)[C@H](O)[C@H]3NC(=O)CCCCCCCC(C)C)Oc3ccc(cc3Cl)C[C@H]3NC(=O)[C@H](N)c5ccc(O)c(c5)Oc5cc(O)cc(c5)[C@H](NC3=O)C(=O)N[C@H]4C(=O)N[C@H]3C(=O)N[C@@H]2C(=O)N[C@H](C(=O)O)c2cc(O)cc(O[C@H]4O[C@H](CO)[C@@H](O)[C@H](O)[C@@H]4O)c2-c2cc3ccc2O)O[C@H](CO)[C@@H](O)[C@@H]1O [Teicoplanin A2-5]
[1]; [20]
  Pf_72h_%Growth_Rep1: 86.27%
[1]; [21]
  Pf_72h_%Growth_Rep2: 115.48%
[2]; [22]
  Pf_120h_%Growth_Rep1: 86.61%
[2]; [23]
  Pf_120h_%Growth_Rep2: 122.81%
[3]; [24]
  Tg_72h_%Growth_Rep1: 105.42%
[3]; [25]
  Tg_72h_%Growth_Rep2: 91.45%

## Cc1cccc(O)c1C(=O)O [BIA-M1655]
[1]; P. falciparum 3D7, 72 h, parasite screen at 2 μg/mL, % growth, replicate 1
  Pf_72h_%Growth_Rep1: 90.28%
[1]; P. falciparum 3D7, 72 h, parasite screen at 2 μg/mL, % growth, replicate 2
  Pf_72h_%Growth_Rep2: 64.98%
[2]; P. falciparum 3D7, 120 h, parasite screen at 2 μg/mL, % growth, replicate 1
  Pf_120h_%Growth_Rep1: 96.92%
[2]; P. falciparum 3D7, 120 h, parasite screen at 2 μg/mL, % growth, replicate 2
  Pf_120h_%Growth_Rep2: 97.37%
[3]; T. gondii, 72 h, parasite screen at 2 μg/mL, % growth, replicate 1
  Tg_72h_%Growth_Rep1: 91.77%
[3]; T. gondii, 72 h, parasite screen at 2 μg/mL, % growth, replicate 2
  Tg_72h_%Growth_Rep2: 83.98%

## O=c1[nH]c2ccccc2c(-c2ccccc2)c1O [Viridicatin]
[1]; [4]
  activity at 2 µg/mL: 91.8%
[1]; [5]
  activity at 2 µg/mL: 125%
[2]; [6]
  activity at 2 µg/mL: 106%
[2]; [7]
  activity at 2 µg/mL: 104%
[3]; [8]
  percent parasite growth at 2 µg/mL: 145%
[3]; [9]
  percent parasite growth at 2 µg/mL: 80.5%

## CN(C)c1cc(NC(=O)CNC(C)(C)C)c(O)c2c1C[C@H]1C[C@H]3[C@H](N(C)C)C(O)=C(C(N)=O)C(=O)[C@@]3(O)C(O)=C1C2=O [Tigecycline]
[1]; [4]
  activity at 2 µg/mL: 88.2%
[1]; [5]
  activity at 2 µg/mL: 87.6%
[2]; [6]
  activity at 2 µg/mL: 106%
[2]; [7]
  activity at 2 µg/mL: 93.4%
[3]; [8]
  percent parasite growth at 2 µg/mL: 144%
[3]; [9]
  percent parasite growth at 2 µg/mL: 97%

## C=C(NC(=O)C(=C)NC(=O)c1ccc2c(n1)-c1coc(n1)C(=C)NC(=O)C(=C)NC(=O)c1nc(oc1C)C(=C)NC(=O)C(C(C)(C)O)NC(=O)C(=C)NC(=O)c1coc(n1)/C(=C/C)NC(=O)[C@H]([C@@H](C)O)NC(=O)c1csc-2n1)C(N)=O (stereo partly drawn) [Geninthiocin]
[1]; [16]
  Pf_72h_%Growth_Rep1: 87.80%
[1]; [17]
  Pf_72h_%Growth_Rep2: 33.98%
[2]; [18]
  Pf_120h_%Growth_Rep1: 87.82%
[2]; [19]
  Pf_120h_%Growth_Rep2: 106.01%
[3]; [16]
  Tg_72h_%Growth_Rep1: 124.28%
[3]; [17]
  Tg_72h_%Growth_Rep2: 90.80%

## Cc1c2oc3c(C)ccc(C(=O)N[C@@H]4C(=O)N[C@H](C(C)C)C(=O)N5CCC[C@H]5C(=O)N(C)CC(=O)N(C)[C@@H](C(C)C)C(=O)O[C@@H]4C)c3nc-2c(C(=O)N[C@@H]2C(=O)N[C@H](C(C)C)C(=O)N3CCC[C@H]3C(=O)N(C)CC(=O)N(C)[C@@H](C(C)C)C(=O)O[C@@H]2C)c(N)c1=O [Actinomycin D] (I: T[dV]P[Sar][NMeV] / II: T[dV]P[Sar][NMeV]; ester I:1-I:C, II:1-II:C; linker I:N-II:N via Actinocin(9to1))
[1]; [10]
  activity at 2 µg/mL: 2.91%
[1]; [11]
  activity at 2 µg/mL: 5.02%
[2]; [12]
  activity at 2 µg/mL: 7.65%
[2]; [13]
  activity at 2 µg/mL: -5.71%
[3]; Toxoplasma gondii; library screen at 2 μg/mL, 72 h, % growth, replicate 1; read-out: Tg_72h_%Growth_Rep1
  percent parasite growth at 2 µg/mL: 2.02%
[3]; Toxoplasma gondii; library screen at 2 μg/mL, 72 h, % growth, replicate 2; read-out: Tg_72h_%Growth_Rep2
  percent parasite growth at 2 µg/mL: 0.47%

## CO[C@@H]1[C@@H](O)[C@@H](O)[C@@H](Oc2ccc3c(O)c(NC(=O)c4ccc(O)c(CC=C(C)C)c4)c(=O)oc3c2C)OC1(C)C [Descarbamylnovobiocin]
[1]; [16]
  Pf_72h_%Growth_Rep1: 85.51%
[1]; [17]
  Pf_72h_%Growth_Rep2: 80.09%
[2]; [18]
  Pf_120h_%Growth_Rep1: 85.93%
[2]; [19]
  Pf_120h_%Growth_Rep2: 82.51%
[3]; [16]
  Tg_72h_%Growth_Rep1: 154.63%
[3]; [17]
  Tg_72h_%Growth_Rep2: 96.44%
